# Patent publication US8834841B2, “Imaging agents” (priority 2005, dated 2014)
# Experiments:
# [1] = tested on: A549 (lung), DU145 (prostate), SKOV3 (ovary), and MDA MB468 (breast) tumor-bearing SCID mice; assay: in vivo biodistribution studies, summary over tumor models; conditions: injected intravenously
# Experimental: For the in vitro amino acid uptake studies, all cells can be grown to monolayer confluency in T-175 culture flasks [Corning, Corning, N.Y.] (approx. 1×10^8 cells/flask) in Dulbecco's Modified Eagle's Medium (DMEM) [Sigma, St. Louis, Mo.] in a humidified incubator (37° C., 5% CO2/95% air). Media are supplemented with 10% fetal calf serum [Hyclone, Logan, Utah], and antibiotics (10,000 U/ml penicillin and 10 mg/ml streptomycin) (Sigma, St. Louis, Mo.). For tissue culture passage, monolayer cells are detached by gentle trypsinization, resuspended in complete media, and split 1:10 into new T-flasks. Cultures are passaged weekly, and fed fresh media every 2 to 3 days. To initiate tumor growth in SCID mice, 1×10^6 cells are injected s.c. bilaterally into the flanks (inguinal region) of the recipient animals using a 1 ml syringe with a 27 gauge needle. Ex vivo experiments can be performed with animals containing tumors weighing between 500 mg and 1 g, as estimated by caliper measurement (tumor weight=(π/6)*abc, where a, b and c are the tumor length, width and height, respectively). The compounds of the invention are further evaluated for their tumor specificity and selectivity in tumor-bearing animal models. One can evaluate and compare the transport, accumulation and tissue distribution of each compound in these in vivo animal studies. Tissue distribution of the compounds is measured in SCID mice (average weight, 20-25 g) bearing human tumors as follows. The candidate radioligands (20 uCi in 0.4 ml 0.9% NaCl) are injected into the tail vein of tumor-bearing mice. The animals are sacrificed (cervical dislocation) at 5, 30, 60 and 120 minutes post-injection. Tissues (blood, heart, liver, lungs, kidneys, bone, thyroid, muscle, brain and tumor) are excised, rinsed in saline, and blotted dry. The tissues are weighed, placed into 12×75 mm glass vials, the radioactivity determined with a gamma counter, and the percent dose/gram calculated. Total activities of blood and muscle are calculated by assuming that they account for 7% and 40% of the total body mass, respectively. As exemplified above, the amino acid compounds of the invention have advantageous physiological characteristics (i.e., tumor binding specificity and selectivity, in vivo stability etc).
# DU145 prostate carcinoma = assay: in vitro amino acid uptake, DU145 cells; format: cell-based, human
# Excerpt: (§1) The inventive compounds have been evaluated in vitro for tumor binding specificity (i.e. uptake cells) using a variety of tumor cell lines available in the art, along with reference compounds such as Me-AIB and BCH. Detailed description of these assays can be found in Martarello et al. (2002) Journal of Medicinal Chemistry, 45:2250-2259 and McConathy et al. (2003) Nuclear Medicine and Biology, 30:477-490. These, so called “amino acid uptake studies” are typically carried out with radiolabeled compounds in at least five phenotypically different human tumor cell lines (e.g. A549 lung carcinoma, MB468 breast carcinoma, DU145 prostate carcinoma, SKOV3 ovarian carcinoma, and U87 glial blastoma). These tumor cell lines can be grown either in vitro or in vivo with severe combined immunodeficiency (SCID) mice as a host. The fore-mentioned tumor cell lines are available at the Winship Cancer Institute of Emory University.
# (§2) For the in vitro amino acid uptake studies, all cells can be grown to monolayer confluency in T-175 culture flasks [Corning, Corning, N.Y.] (approx. 1×10^8 cells/flask) in Dulbecco's Modified Eagle's Medium (DMEM) [Sigma, St. Louis, Mo.] in a humidified incubator (37° C., 5% CO2/95% air). Media are supplemented with 10% fetal calf serum [Hyclone, Logan, Utah], and antibiotics (10,000 U/ml penicillin and 10 mg/ml streptomycin) (Sigma, St. Louis, Mo.). For tissue culture passage, monolayer cells are detached by gentle trypsinization, resuspended in complete media, and split 1:10 into new T-flasks. […]
# (§3) In the in vitro studies the uptake rate of each amino acid compound is measured in each tumor line, as well as the dominant transport mechanisms of each tumor cell line. After trypsinization, cells are resuspended in serum-free media, then counted on a hemocytometer, with viability assessed through Trypan blue staining. […] The vials are placed in a Cobra-II gamma counter (Packard, Meriden, Conn.), with the activity per cell number determined. […] Saline washes are performed as described above, and the filtered cells radioactivity determined on the gamma counter. […]
# A549 lung carcinoma = assay: in vitro amino acid uptake, A549 cells; format: cell-based, human
# Excerpt: as §1, §2, §3
# [2] = 120 min p.i., range over tumor models
compound,measurement,setting,value
"NC1(C(=O)O)CCC1[18F] [Anti-R,S 2-[^18F]FACBC, (R,S) anti-1-amino-2-[^18F]fluorocyclobutyl-1-carboxylic acid]",tumor uptake,[1]; [2],1.4-3.4 % dose/g
same,tumor-to brain ratio,[1]; [2],15-30
same,tumor-to kidney ratio,[1]; [2],1.5-2.7
same,tumor-to liver ratio,[1]; [2],2.4-4
same,tumor-to muscle ratio,[1]; [2],2-4
same,accumulation of radioactivity in tumors,[1],rapid and prolonged accumulation of radioactivity in tumors
same,% Dose Uptake/0.5e6 Cells,"DU145 prostate carcinoma; DU145, No inhibitor",6.40 +/− 0.60 % Dose Uptake/0.5e6 Cells
same,% Dose Uptake/0.5e6 Cells,"DU145 prostate carcinoma; DU145, inhibitor BCH (10 mM)",1.78 +/− 0.20 % Dose Uptake/0.5e6 Cells
same,% Dose Uptake/0.5e6 Cells,"DU145 prostate carcinoma; DU145, inhibitor MeAlB (10 mM)",2.07 +/− 0.26 % Dose Uptake/0.5e6 Cells
same,% Dose Uptake/0.5e6 Cells,"A549 lung carcinoma; A549, No inhibitor",8.89 +/− 0.36 % Dose Uptake/0.5e6 Cells
same,% Dose Uptake/0.5e6 Cells,"A549 lung carcinoma; A549, inhibitor BCH (10 mM)",3.99 +/− 0.39 % Dose Uptake/0.5e6 Cells
same,% Dose Uptake/0.5e6 Cells,"A549 lung carcinoma; A549, inhibitor MeAlB (10 mM)",6.93 +/− 0.20 % Dose Uptake/0.5e6 Cells
